Common to all, as to assay type: microsomes
Details in all cases: Microsome

For experiment [1], the target named is T1, 3-hydroxy-3-methylglutaryl-coenzyme A reductase (Rattus norvegicus) (UniProt P51639).
T1 sequence (whole entry): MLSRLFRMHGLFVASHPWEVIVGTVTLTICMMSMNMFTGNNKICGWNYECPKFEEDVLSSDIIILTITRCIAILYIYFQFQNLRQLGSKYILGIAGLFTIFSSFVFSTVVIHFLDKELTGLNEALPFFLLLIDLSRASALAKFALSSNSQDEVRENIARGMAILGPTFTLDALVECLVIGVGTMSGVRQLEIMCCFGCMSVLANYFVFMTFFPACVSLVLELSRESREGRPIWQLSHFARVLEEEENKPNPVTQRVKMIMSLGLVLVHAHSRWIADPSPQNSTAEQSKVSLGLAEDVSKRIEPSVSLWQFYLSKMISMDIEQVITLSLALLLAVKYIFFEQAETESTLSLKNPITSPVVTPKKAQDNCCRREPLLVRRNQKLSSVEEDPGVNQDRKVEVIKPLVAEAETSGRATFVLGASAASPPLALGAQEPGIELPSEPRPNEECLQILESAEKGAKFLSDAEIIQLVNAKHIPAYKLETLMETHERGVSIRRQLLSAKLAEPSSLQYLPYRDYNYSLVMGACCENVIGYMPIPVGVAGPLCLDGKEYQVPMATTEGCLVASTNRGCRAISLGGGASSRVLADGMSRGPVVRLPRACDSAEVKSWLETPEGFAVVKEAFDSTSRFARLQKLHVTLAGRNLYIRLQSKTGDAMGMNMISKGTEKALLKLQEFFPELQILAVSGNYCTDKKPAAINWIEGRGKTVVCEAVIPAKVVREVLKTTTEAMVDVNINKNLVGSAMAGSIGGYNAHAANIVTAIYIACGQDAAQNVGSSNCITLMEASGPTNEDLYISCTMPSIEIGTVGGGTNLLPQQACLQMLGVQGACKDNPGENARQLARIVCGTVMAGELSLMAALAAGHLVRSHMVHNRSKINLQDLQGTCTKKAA
The experiment is described as follows: Inhibition of enzyme activity in a rat hepatic microsomal HMG-CoA reductase at 100 uM; IA means inactive.

For experiment [2], the target named is T1, 3-hydroxy-3-methylglutaryl-coenzyme A reductase (Rattus norvegicus). Put plainly: Inhibition of enzyme activity in a rat hepatic microsomal HMG-CoA reductase at 100 uM IA means inactive.
For experiment [3] the target is unchanged. Put plainly: Inhibition of enzyme activity in a rat hepatic microsomal HMG-CoA reductase at 100 uM.

Active and inactive are the calls of the source. The calls are words filed in the database; no cut-off is given here.

The values that follow come from ChEMBL document CHEMBL1125850, “Synthesis of substrate-based inhibitors of HMG CoA reductase” (Bioorg Med Chem Lett, 1991).

In the case of `CC(C)[C@@H](O)C(=O)NCCC(=O)NCCSCC(O)CC(O)CC(=O)O` (stereo partly drawn), the outcome in experiment [1] was inactive.
On to `CC(C)[C@@H](O)C(=O)NCCC(=O)NCCSCC(=O)CC(O)CC(=O)O` (stereo partly drawn), for which the result in experiment [2] was inactive.
In experiment [3], `CC(C)[C@@H](O)C(=O)NCCC(=O)NCCSCCC(O)CC(=O)O` (stereo partly drawn) showed an inhibition of 24%.
